The text below walks through data of publication PMC5000080, “Mechanism of Histone H3K4me3 Recognition by the Plant Homeodomain of Inhibitor of Growth 3” (The Journal of Biological Chemistry, 2016).

Values joined by “and” are separate entries in the source; they are usually repeats but may differ in a detail not shown here. Identical values can stand only once. “Also recorded” adds a separate entry of the source.

Assay [1] addresses T1, wild-type ING3 PHD finger (Homo sapiens, UniProt Q9NXR8).
T1 construct: The ING3 PHD finger region (residues 360–409) was amplified using PCR; GST (N, cleaved yes); made in house; host or cells: Escherichia coli Rosetta 2(DE3)pLysS
Kind of assay: ITC of wild-type ING3 PHD finger with histone peptides. The conditions noted are these: for Kd / ITC KD: wild-type ING3 PHD, 5 °C, 20 mM NaH2PO4 pH 7.0, 150 mM NaCl, triplicate, non-binding in duplicate. It counts as binding. On the procedure:
(§1) ITC measurements were recorded at 5 °C using a MicroCal iTC200 (GE Healthcare) as described previously ([55]). The wild-type and mutant ING3PHD proteins and histone peptide samples were prepared in a 20 mM NaH2PO4, pH 7.0, and 150 mM NaCl ITC buffer by dialysis for 24–48 h. Titration experiments were set up for optimal heat of binding reactions by using 100–200 μM ING3PHD in the sample cell, and between 1 and 5 mM histone peptide in the injection syringe. Control experiments were performed under identical conditions to determine the heat of dilution of the titrant peptides into the experimental buffer. This was subtracted from the experimental data as part of data analysis. Data were analyzed using the software ORIGIN 7.0 (OriginLab Corp.).

Assay [2] has as its target T2, 15N-labeled ING3 PHD finger (Homo sapiens, UniProt Q9NXR8).
T2 construct: The ING3 PHD finger region (residues 360–409) was amplified using PCR; GST (N, cleaved yes); made in house; host or cells: Escherichia coli Rosetta 2(DE3)pLysS
Kind of assay: 1H-15N HSQC NMR chemical shift perturbation. It counts as binding. The conditions noted are these: 0.5 mM ING3 PHD, 20 mM Tris-HCl pH 6.8, 150 mM NaCl, 10 mM DTT, 25 °C; protein:peptide up to 1:2.61. The procedure:
Chemical shift perturbation experiments were conducted using 0.5 mM uniformly ^15N-labeled ING3 PHD finger in buffer containing 20 mM Tris-HCl, pH 6.8, 150 mM NaCl, 10 mM DTT, and 10% D2O. Titration mixtures of the ING3PHD protein and each of the modified histone peptides were prepared at concentration ratios of 1:0, 1:0.13, 1:0.26, 1:0.52, 1:1.3, and 1:2.61 in a volume of 35 μl. These mixtures were then transferred into 1.7-mm NMR tubes (Bruker).
Two-dimensional ^15N HSQC (heteronuclear single quantum coherence) experiments for all samples were run at 25 °C on a 600 MHz Bruker AVANCE III spectrometer equipped with a z-gradient 1.7-mm TCI probe at the National Magnetic Resonance Facility at Madison (NMRFAM) using the NMRBot software ([57]). The NMR data were collected with 1024 × 128 complex data points along the ^1H and ^15N dimensions, with acquisition times of 104 and 81 ms, respectively, using eight scans per free induction decay. Normalized chemical shift changes were calculated using Equation 2, [drawing 2] where ΔδH and ΔδN are the proton and nitrogen change in chemical shift in ppm, respectively.

For a further assay, the target named is T3, ING3 PHD finger (Homo sapiens, UniProt Q9NXR8).
T3 construct: The ING3 PHD finger region (residues 360–409) was amplified using PCR; GST (N, cleaved yes); made in house; host or cells: Escherichia coli Rosetta 2(DE3)pLysS
T3 sequence (Q9NXR8 360-409): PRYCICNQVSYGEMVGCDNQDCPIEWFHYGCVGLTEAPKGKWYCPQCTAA
The assay can be described thus: Tryptophan fluorescence titration of ING3 PHD finger with histone peptides. It counts as binding. The conditions noted are these: 25 °C, 100 mM NaPO4 pH 7.5, 150 mM NaCl, 1 mM DTT, 10 μM ING3 PHD; average of three titrations; read-out: Trp fluorescence KD. On the procedure:
Tryptophan fluorescence spectra of samples in tryptophan fluorescence buffer (100 mM NaPO4, pH 7.5, 150 mM NaCl, and 1 mM DTT) were collected at 25 °C using a Cary Eclipse fluorescence spectrometer (Varian). The samples contained 10 μM ING3 PHD finger protein and progressively increasing concentrations of histone H3 and H4 peptides. The 12- and 14-mer unlabeled histone tail peptides with an amidated C terminus and specific methylation modifications (H3K4me3, H3K4me2, H3K4me1, H3 unmodified, and H4 unmodified) were synthesized by the Peptide Core Facility at the University of Colorado at Denver. After excitation at 295 nm, emission spectra were recorded between 305 and 405 nm with 0.5-nm increments and at a 1-s integration time, averaging over three scans. Each titration experiment was repeated three times, and the average KD values were calculated using quadratic Equation 1, [drawing 1] where Fi is the fluorescence change; Fs is the fluorescence change at saturation of XT (the total protein concentration); and YT is the peptide concentration.

For the next assay, the target named is T4, ING3 PHD W31A (Homo sapiens, UniProt Q9NXR8, W385A).
T4 construct: The ING3 PHD finger region (residues 360–409) was amplified using PCR; GST (N, cleaved yes); made in house; host or cells: Escherichia coli Rosetta 2(DE3)pLysS
T4 sequence (Q9NXR8 360-409 W385A): as the sequence (Q9NXR8 360-409) above, with W26A counted along it
The assay can be described thus: ITC of ING3 PHD mutant with H3K4me3 peptide. The conditions noted are these: 5 °C, pH 7.0, non-binding in duplicate.
Description: (§2) The ING3 PHD finger region (residues 360–409) was amplified using PCR and cloned into the pDEST15 vector encoding an N-terminal glutathione transferase (GST) tag using the Gateway cloning technology (Invitrogen) as described previously ([55]). ING3PHD proteins with single mutations at W31A, W47A, S15A, P43A, Y8A, and D26H were generated using the QuikChange® mutagenesis procedure (Stratagene) as described previously ([56]). The DNA sequence for wild-type and mutant proteins was verified at the University of Vermont DNA facility, and the plasmids were transformed into in Escherichia coli Rosetta^TM 2(DE3)pLysS competent cells (Novagen) for protein expression.
as §1, with “This was subtracted from the experimental data as part of data analysis.” left out, “Corp.). […]” for “Corp.).”

In another assay the target is T5, ING3 PHD Y8A (Homo sapiens, UniProt Q9NXR8, Y362A).
T5 construct: The ING3 PHD finger region (residues 360–409) was amplified using PCR; GST (N, cleaved yes); made in house; host or cells: Escherichia coli Rosetta 2(DE3)pLysS
T5 sequence (Q9NXR8 360-409 Y362A): as the sequence (Q9NXR8 360-409) above, with Y3A counted along it
Kind of assay: ITC of ING3 PHD mutant with H3K4me3 peptide. It counts as binding. The conditions noted are these: 5 °C, pH 7.0, triplicate.
Description: as §2
as §1, with “Corp.). All experiments where binding occurred were performed in triplicate, whereas non-binding experiments were performed in duplicate.” for “Corp.).”

The target in the next assay is T6, ING3 PHD D26H (Homo sapiens, UniProt Q9NXR8, D380H).
T6 construct: The ING3 PHD finger region (residues 360–409) was amplified using PCR; GST (N, cleaved yes); made in house; host or cells: Escherichia coli Rosetta 2(DE3)pLysS
T6 sequence (Q9NXR8 360-409 D380H): as the sequence (Q9NXR8 360-409) above, with D21H counted along it
Kind of assay: ITC of ING3 PHD mutant with H3K4me3 peptide. It counts as binding. The conditions noted are these: 5 °C, pH 7.0, triplicate.
Description: as §2
as §1, with “Corp.). All experiments where binding occurred were performed in triplicate, whereas non-binding experiments were performed in duplicate.” for “Corp.).”

The target in the next assay is T7, ING3 PHD P43A (Homo sapiens, UniProt Q9NXR8, P397A).
T7 construct: The ING3 PHD finger region (residues 360–409) was amplified using PCR; GST (N, cleaved yes); made in house; host or cells: Escherichia coli Rosetta 2(DE3)pLysS
T7 sequence (Q9NXR8 360-409 P397A): as the sequence (Q9NXR8 360-409) above, with P38A counted along it
The assay can be described thus: ITC of ING3 PHD mutant with H3K4me3 peptide. It counts as binding.
Description: as §2
as §1, with “Corp.). All experiments where binding occurred were performed in triplicate, whereas non-binding experiments were performed in duplicate.” for “Corp.).”

A further assay concerns the target T8, ING3 PHD W47A (Homo sapiens, UniProt Q9NXR8, W401A).
T8 construct: The ING3 PHD finger region (residues 360–409) was amplified using PCR; GST (N, cleaved yes); made in house; host or cells: Escherichia coli Rosetta 2(DE3)pLysS
The assay can be described thus: ITC of ING3 PHD mutant with H3K4me3 peptide. It counts as binding. The conditions noted are these: 5 °C, pH 7.0, triplicate.
Description: as §2
as §1, with “Corp.). All experiments where binding occurred were performed in triplicate, whereas non-binding experiments were performed in duplicate.” for “Corp.).”

For a further assay, the target named is T9, ING3 PHD S15A (Homo sapiens, UniProt Q9NXR8, S369A).
T9 construct: The ING3 PHD finger region (residues 360–409) was amplified using PCR; GST (N, cleaved yes); made in house; host or cells: Escherichia coli Rosetta 2(DE3)pLysS
T9 sequence (Q9NXR8 360-409 S369A): as the sequence (Q9NXR8 360-409) above, with S10A counted along it
Kind of assay: ITC of ING3 PHD mutant with H3K4me3 peptide. It counts as binding.
Description: as §2
as §1, with “Corp.). All experiments where binding occurred were performed in triplicate, whereas non-binding experiments were performed in duplicate.” for “Corp.).”

T1 sequence (Q9NXR8 360-409): as the sequence (Q9NXR8 360-409) above
T2 sequence (Q9NXR8 360-409): as above
T8 sequence (Q9NXR8 360-409 W401A): as the sequence (Q9NXR8 360-409) above, with W42A counted along it

In general, Kd refers to the free concentration of one partner at which half of the binding sites on the other are occupied at equilibrium, for simple one-to-one binding. For `CNCCCC[C@H](NC(=O)[C@@H](NC(=O)[C@H](CCCNC(=N)N)NC(=O)[C@H](C)N)[C@@H](C)O)C(=O)N[C@@H](CCC(N)=O)C(=O)N[C@H](C(=O)N[C@@H](C)C(=O)N[C@@H](CCCNC(=N)N)C(=O)N[C@@H](CCCCN)C(=O)N[C@@H](CO)C(=O)N[C@H](C(=O)NCC(N)=O)[C@@H](C)O)[C@@H](C)O` [H3K4me1], the Kd is 23.2 ± 0.8 µM in [1] and 21.4 ± 3.51 µM at ING3 PHD finger. Moreover, the “chemical shift perturbations in 1H-15N HSQC upon addition of peptide” value (“chemical shift perturbations” for short) in assay [2] is given as “Chemical shift perturbations were induced”.

For `C[C@H](N)C(=O)N[C@@H](CCCNC(=N)N)C(=O)N[C@H](C(=O)N[C@@H](CCCCN(C)C)C(=O)N[C@@H](CCC(N)=O)C(=O)N[C@H](C(=O)N[C@@H](C)C(=O)N[C@@H](CCCNC(=N)N)C(=O)N[C@@H](CCCCN)C(=O)N[C@@H](CO)C(=O)N[C@H](C(=O)NCC(N)=O)[C@@H](C)O)[C@@H](C)O)[C@@H](C)O` [H3K4me2], the figures for the Kd (in assay [1]; on ING3 PHD finger) were 2.99 ± 0.33 µM and 4.05 ± 0.53 µM, respectively. The “chemical shift perturbations” value in assay [2] is “Chemical shift perturbations were induced”.

As to `C[C@H](N)C(=O)N[C@@H](CCCNC(=N)N)C(=O)N[C@H](C(=O)N[C@@H](CCCCN)C(=O)N[C@@H](CCC(N)=O)C(=O)N[C@H](C(=O)N[C@@H](C)C(=O)N[C@@H](CCCNC(=N)N)C(=O)N[C@@H](CCCCN)C(=O)N[C@@H](CO)C(=O)N[C@H](C(=O)NCC(N)=O)[C@@H](C)O)[C@@H](C)O)[C@@H](C)O` [H3 unmodified], the Kd came to 181 ± 19.2 µM in [1] and 132 ± 13.5 µM on ING3 PHD finger. For the same molecule, in assay [2], the “chemical shift perturbations” value is on record as “Chemical shift perturbations were induced”.

For the molecule “GKGGKGLGKGGAKR [H4 unmodified, unmodified histone H4 tail peptide residues 4–17, amidated C terminus]”, the “ITC KD” value in assay [1] is reported as “No binding was observed”; in assay [1] (listed as H4 unmodified(4–17)), “No binding”. The “chemical shift perturbations” value in assay [2] was “No significant resonance shifts”.

With `C[C@H](N)C(=O)N[C@@H](CCCNC(=N)N)C(=O)N[C@H](C(=O)N[C@@H](CCCC[N+](C)(C)C)C(=O)N[C@@H](CCC(N)=O)C(=O)N[C@H](C(=O)N[C@@H](C)C(=O)N[C@@H](CCCNC(=N)N)C(=O)N[C@@H](CCCCN)C(=O)N[C@@H](CO)C(=O)N[C@H](C(=O)NCC(N)=O)[C@@H](C)O)[C@@H](C)O)[C@@H](C)O` [H3K4me3], at ING3 PHD W31A, the “ITC KD” value was “no recognition of this ligand; also recorded: No binding”. Moreover, the “association stronger than with the unmodified histone H3” value in assay [1] (abstract, method not specified (Trp fluorescence and ITC)) was “about 200 fold”. Also, the Kd in assay [1] was found to be 0.93 ± 0.04 µM; on ING3 PHD finger, 0.63 ± 0.11 µM; on ING3 PHD Y8A, 46 ± 2.99 µM; at ING3 PHD D26H, 1.93 ± 0.26 µM; at ING3 PHD P43A (5 °C, pH 7.0, triplicate) it was 2.45 ± 0.27 µM; on ING3 PHD W47A, 48.31 ± 0.23 µM. In addition, the affinity on ING3 PHD S15A (5 °C, pH 7.0, triplicate), expressed as Kd, was 1.5 ± 0.01 µM. Besides, in assay [2], the “chemical shift perturbations” value is on record as “Chemical shift perturbations were induced”. Also, the “drop in binding affinity versus WT” value on ING3 PHD P43A (ITC) was 2–3 fold; at ING3 PHD S15A (ITC), 2–3 fold and 2 fold.
